The source of these data is patent publication US20140235542A1, “MODULAR, BIOACTIVE PEPTIDES FOR BINDING NATIVE BONE AND IMPROVING BONE GRAFT OSTEOINDUCTIVITY” (WISCONSIN ALUMNI RESEARCH FOUNDATION, priority 2013, published 2014).

The subject of test [1] is hMSCs. Description: Alkaline phosphatase (ALP) activity in hMSCs. The test is classed as cell-based, human. The settings on record: peptide bound to HA-coated film, vs untreated substrates. Here is the method: hMSCs (Cambrex, Walkersville, Md., passages 5-6) were cultured in mesenchymal stem cell growth medium (MSCGM: Cambrex) consisting of MSC Basal Medium supplemented with 10% fetal bovine serum, L-glutamine, 100 units/ml penicillin, and 0.1 mg/ml streptomycin and grown using culture methods described elsewhere. […] The effects of soluble peptides included in culture medium were evaluated by adding 50 μg of eBGu3 or eBGa3 peptides to hMSC cultures on TCP in 500 μl of medium with or without osteogenic culture supplements. […]
The biological activity of modular peptides was initially assayed by their ability to enhance ALP activity in hMSCs. […] ALP activity was measured at 405 nm, and calculated as the ratio of p-nitrophenol released to total DNA concentration (nmol/min/ng DNA). To determine the amount of total DNA in each well, the cell nuclei were disrupted by addition of the aforementioned lysis buffer followed by centrifugation, and quantified using the CyQUANT Assay Kit (Molecular Probes, Eugene, Oreg.).

For test [2], the system named is hMSCs. Description: Mineralized tissue formation by hMSCs (Alizarin Red-S staining). As to conditions: peptide bound to HA-coated film, vs untreated substrates. The test is classed as cell-based, human. As to the method:
hMSCs (Cambrex, Walkersville, Md., passages 5-6) were cultured in mesenchymal stem cell growth medium (MSCGM: Cambrex) consisting of MSC Basal Medium supplemented with 10% fetal bovine serum, L-glutamine, 100 units/ml penicillin, and 0.1 mg/ml streptomycin and grown using culture methods described elsewhere. 2.5×10^4 hMSCs were seeded onto either tissue culture-treated polystyrene (TCP) or four different types of experimental substrates (1 cm^2) (PLG, HA-coated PLG, eBGu3-treated HA coating, or eBGa3-treated HA coating). hMSCs were allowed to attach to each substrate overnight, then cultured in MSCGM with osteogenic culture supplements (OS) (0.1 μM dexamethasone, 50 μg/ml ascorbic acid, and 10 mM β-glycerophosphate) for 24 days. The effects of soluble peptides included in culture medium were evaluated by adding 50 μg of eBGu3 or eBGa3 peptides to hMSC cultures on TCP in 500 μl of medium with or without osteogenic culture supplements. […]
Characterization of mineralized tissue growth was performed via Alizarin Red-S (ARS) staining at day 20. […] For quantification of staining, 400 μl 10% (v/v) acetic acid was added to each well for 30 minutes with shaking. […] Aliquots (100 μl) of the supernatant were read in triplicate at 405 nm in 96-well plate reader.

The nature of test [3]: Binding of rhodamine-labeled peptide to cortical bone. Further details: species or system sheep. Here is the method:
The native bone used were harvested from sheep tibia and bovine sternum. Cortical (compact) bone slices were collected from sheep tibia with periosteum removed, and trabecular (cancellous, spongy) bone cores were drilled out from bovine sternum under sterile conditions.
The peptide binding to native bones was tested in three different experiments. In the first experiment, the cortical bone slices were incubated in modular peptide solution (0.5 mL, PBS) with concentrations of 50, 100, 200 and 300 μg/mL. The incubation was continued in a static condition for a period of 0.5, 1, 2 and 3 hours. For another experiment, the trabecular bone cores were placed in the chamber of bone bioreactor where the peptide solution prepared in DMEM (100 μg/mL, 6.5 mL) was continuously circulated through the chamber for a time period of 2, 4, 6, 8 and 10 hours. In the last experiment, mBMP was bound in a spatially controlled manner by dip-coating, spotting or writing with mBMP solution on native bone tissues. Following each experiment, the bones were rinsed with PBS to remove unbound peptide and their fluorescence images were captured using a Typhoon fluorescence scanner (GE healthcare) or a Nikon Eclipse Ti inverted microscope. To quantify the fluorescence intensity, the images were converted into 8-bit using ImageJ to present the intensity level of each pixel in the range of 0 to 255. The mean pixel intensity of a selected region of interest was considered to be proportional to the amount of peptide bound.
To examine mBMP binding to cortical bone without periosteum (ca. 4 mm×7 mm×1.5 mm) from the shaft of sheep tibia, the bone tissue was incubated in mBMP solution prepared in phosphate buffered saline (PBS). The binding of mBMP was concentration-dependent for each incubation time tested (FIGS. 12 and 13A). The quantity of mBMP binding was proportional to the solution concentration, which was clearly observed through all concentrations at 0.5 hour. However, this dependence was not apparent at higher concentrations at later time points. […] The insignificant dependence on the incubation time is likely attributed to the rapid binding of mBMP to native bone tissue.

Square brackets hold non-standard residues; d marks the D form. Ends that are not written are not given here. Gla = N[C@@H](CC(C(=O)O)C(=O)O)C(=O)O

Regarding “KIPKASSVPTELSAISTLYLAAAAγEPRRγEVAγEL (KIPKASSVPTELSAISTLYLAAAA[Gla]PRR[Gla]VA[Gla]L-NH2; N-terminus assumed; SMILES CC[C@H](C)[C@H](NC(=O)[C@H](C)NC(=O)[C@H](CO)NC(=O)[C@H](CC(C)C)NC(=O)[C@H](CCC(=O)O)NC(=O)[C@@H](NC(=O)[C@@H]1CCCN1C(=O)[C@@H](NC(=O)[C@H](CO)NC(=O)[C@H](CO)NC(=O)[C@H](C)NC(=O)[C@H](CCCCN)NC(=O)[C@@H]1CCCN1C(=O)[C@@H](NC(=O)[C@@H](N)CCCCN)[C@@H](C)CC)C(C)C)[C@@H](C)O)C(=O)N[C@@H](CO)C(=O)N[C@H](C(=O)N[C@@H](CC(C)C)C(=O)N[C@@H](Cc1ccc(O)cc1)C(=O)N[C@@H](CC(C)C)C(=O)N[C@@H](C)C(=O)N[C@@H](C)C(=O)N[C@@H](C)C(=O)N[C@@H](C)C(=O)N[C@@H](CC(C(=O)O)C(=O)O)C(=O)N1CCC[C@H]1C(=O)N[C@@H](CCCNC(=N)N)C(=O)N[C@@H](CCCNC(=N)N)C(=O)N[C@@H](CC(C(=O)O)C(=O)O)C(=O)N[C@H](C(=O)N[C@@H](C)C(=O)N[C@@H](CC(C(=O)O)C(=O)O)C(=O)N[C@@H](CC(C)C)C(N)=O)C(C)C)[C@@H](C)O) [eBGa3]”, in test [1], the “effect of immobilized peptide on ALP activity” value is reported as “significantly enhanced”. In addition, the “effect of immobilized peptide on mineralized tissue formation” value in test [2] is recorded as “significantly enhanced”. In test [3] (50-300 μg/mL in PBS, 0.5-3 hours), the “dependence of binding to cortical bone on concentration and incubation time” value is recorded as “concentration-dependent”. Besides, the “binding to bone surface after dip-coating” value in test [3] (bone piece dip-coated in peptide solution) is reported as “significant amount of mBMP was found to bind”. Besides, the “fluorescence intensity of treated bone compared with rhodamine-treated group” value in test [3] (rhodamine-labeled peptide, cortical bone) was “higher fluorescence intensity”.
